{"source": "the supplement of paper PMC10307832", "test_in_all_cases": "relative viability (nuclei count vs DMSO), 5 days (fraction); higher = more cells survive", "key": {"[1]": {"compound": "C1=CC=C(C(=C1)C2=CC=C(C=C2)C3=CSC4=C3C(=C(C(=O)N4)C#N)O)O + CC(=O)c1c(C)c2cnc(Nc3ccc(N4CCNCC4)cn3)nc2n(C2CCCC2)c1=O [Palbociclib] (partner 0.5 µM)", "in_short": "(§1)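 Lung cancer cell lines in 1536-well plates got either a single drug or a fixed anchor-drug dose together with five library-drug doses (not always all listed) in √10 steps, by pin tool, on the day after seeding. Nuclei were counted after 5 days, and relative viability is the treated-to-vehicle ratio of nuclei counts. Values are medians of duplicate plates.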"}, "[2]": {"compound": "CC1=CN2C(=O)C=C(N=C2C(=C1)C(C)NC3=CC=CC=C3)N4CCOCC4 [TGX 221] + CC(=O)Nc1cccc(-n2c(=O)n(C3CC3)c(=O)c3c(Nc4ccc(I)cc4F)n(C)c(=O)c(C)c32)c1 [Trametinib] (partner 0.02 µM)", "in_short": "as §1"}, "[3]": {"compound": "CC1=CN2C(=O)C=C(N=C2C(=C1)C(C)NC3=CC=CC=C3)N4CCOCC4 [TGX 221] + Cc1nc(NC(=O)N2CCC[C@H]2C(N)=O)sc1-c1ccnc(C(C)(C)C(F)(F)F)c1 [Alpelisib] (partner 2 µM)", "in_short": "as §1"}, "[4]": {"compound": "O=C(CCCCCCNC(=O)c1cnc(N(c2ccccc2)c2ccccc2)nc1)NO [Ricolinostat] + CCNC(=O)c1noc(-c2cc(C(C)C)c(O)cc2O)c1-c1ccc(CN2CCOCC2)cc1 [Luminespib] (partner 0.01 µM)", "in_short": "as §1"}}}
{"cell line": "SK-MES-1", "values": [{"measurement": "relative viability", "setting": "[1]; first compound 0.08 µM", "result": 0.296}, {"measurement": "relative viability", "setting": "[1]; first compound 0.253 µM", "result": 0.305}, {"measurement": "relative viability", "setting": "[1]; first compound 0.8 µM", "result": 0.306}, {"measurement": "relative viability", "setting": "[1]; first compound 2.53 µM", "result": 0.305}, {"measurement": "relative viability", "setting": "[1]; first compound 8 µM", "result": 0.315}, {"measurement": "relative viability", "setting": "[2]; first compound 0.08 µM", "result": 0.526}, {"measurement": "relative viability", "setting": "[2]; first compound 0.253 µM", "result": 0.572}, {"measurement": "relative viability", "setting": "[2]; first compound 0.8 µM", "result": 0.449}, {"measurement": "relative viability", "setting": "[2]; first compound 2.53 µM", "result": 0.379}, {"measurement": "relative viability", "setting": "[2]; first compound 8 µM", "result": 0.339}, {"measurement": "relative viability", "setting": "[3]; first compound 0.08 µM", "result": 0.843}, {"measurement": "relative viability", "setting": "[3]; first compound 0.253 µM", "result": 0.628}, {"measurement": "relative viability", "setting": "[3]; first compound 0.8 µM", "result": 0.785}, {"measurement": "relative viability", "setting": "[3]; first compound 2.53 µM", "result": 0.549}, {"measurement": "relative viability", "setting": "[3]; first compound 8 µM", "result": 0.476}, {"measurement": "relative viability", "setting": "[4]; first compound 0.08 µM", "result": 0.84}, {"measurement": "relative viability", "setting": "[4]; first compound 0.253 µM", "result": 0.865}, {"measurement": "relative viability", "setting": "[4]; first compound 0.8 µM", "result": 0.609}, {"measurement": "relative viability", "setting": "[4]; first compound 2.53 µM", "result": 0.757}]}
{"cell line": "SW 1573", "values": [{"measurement": "relative viability", "setting": "[1]; first compound 0.08 µM", "result": 0.366}, {"measurement": "relative viability", "setting": "[1]; first compound 0.253 µM", "result": 0.378}, {"measurement": "relative viability", "setting": "[1]; first compound 0.8 µM", "result": 0.447}, {"measurement": "relative viability", "setting": "[1]; first compound 2.53 µM", "result": 0.396}, {"measurement": "relative viability", "setting": "[1]; first compound 8 µM", "result": 0.321}, {"measurement": "relative viability", "setting": "[2]; first compound 0.08 µM", "result": 0.518}, {"measurement": "relative viability", "setting": "[2]; first compound 0.253 µM", "result": 0.429}, {"measurement": "relative viability", "setting": "[2]; first compound 0.8 µM", "result": 0.567}, {"measurement": "relative viability", "setting": "[2]; first compound 2.53 µM", "result": 0.382}, {"measurement": "relative viability", "setting": "[2]; first compound 8 µM", "result": 0.442}, {"measurement": "relative viability", "setting": "[3]; first compound 0.08 µM", "result": 0.63}, {"measurement": "relative viability", "setting": "[3]; first compound 0.253 µM", "result": 0.495}, {"measurement": "relative viability", "setting": "[3]; first compound 0.8 µM", "result": 0.577}, {"measurement": "relative viability", "setting": "[3]; first compound 2.53 µM", "result": 0.433}, {"measurement": "relative viability", "setting": "[3]; first compound 8 µM", "result": 0.393}, {"measurement": "relative viability", "setting": "[4]; first compound 0.08 µM", "result": 0.389}, {"measurement": "relative viability", "setting": "[4]; first compound 0.253 µM", "result": 0.214}, {"measurement": "relative viability", "setting": "[4]; first compound 0.8 µM", "result": 0.144}, {"measurement": "relative viability", "setting": "[4]; first compound 2.53 µM", "result": 0.154}]}
{"cell line": "UMC-11", "values": [{"measurement": "relative viability", "setting": "[1]; first compound 0.08 µM", "result": 0.369}, {"measurement": "relative viability", "setting": "[1]; first compound 0.253 µM", "result": 0.374}, {"measurement": "relative viability", "setting": "[1]; first compound 0.8 µM", "result": 0.336}, {"measurement": "relative viability", "setting": "[1]; first compound 2.53 µM", "result": 0.345}, {"measurement": "relative viability", "setting": "[1]; first compound 8 µM", "result": 0.366}, {"measurement": "relative viability", "setting": "[2]; first compound 0.08 µM", "result": 0.671}, {"measurement": "relative viability", "setting": "[2]; first compound 0.253 µM", "result": 0.648}, {"measurement": "relative viability", "setting": "[2]; first compound 0.8 µM", "result": 0.822}, {"measurement": "relative viability", "setting": "[2]; first compound 2.53 µM", "result": 0.777}, {"measurement": "relative viability", "setting": "[2]; first compound 8 µM", "result": 0.823}, {"measurement": "relative viability", "setting": "[3]; first compound 0.08 µM", "result": 0.955}, {"measurement": "relative viability", "setting": "[3]; first compound 0.253 µM", "result": 0.961}, {"measurement": "relative viability", "setting": "[3]; first compound 0.8 µM", "result": 0.966}, {"measurement": "relative viability", "setting": "[3]; first compound 2.53 µM", "result": 1.03}, {"measurement": "relative viability", "setting": "[3]; first compound 8 µM", "result": 1.06}, {"measurement": "relative viability", "setting": "[4]; first compound 0.08 µM", "result": 0.985}, {"measurement": "relative viability", "setting": "[4]; first compound 0.253 µM", "result": 1.02}, {"measurement": "relative viability", "setting": "[4]; first compound 0.8 µM", "result": 0.964}, {"measurement": "relative viability", "setting": "[4]; first compound 2.53 µM", "result": 0.684}]}
